Measurements: US20240390464A1, “Treatment of Adults With Overweight or Obesity With or Without Weight-Related Comorbidities” (Carmot Therapeutics Inc., priority 2023, published 2024)
Entries after “also recorded” stand apart in the source; their conditions may differ. Numbered stars: 1 amine (or outer) side, 2 acyl side, 3 side chain; on linkers, the order of the positions; unused ones are H or OH. Square brackets hold non-standard residues; d marks the D form. Side chains are listed from the residue outwards. Peptide text beside a SMILES is read from it. * marks the point of attachment. Isobutyryl(2-(3-CN-5-F-Ph)) = CC(C)(C(=O)*)c1cc(F)cc(C#N)c1; C20 diacid = O=C(O)CCCCCCCCCCCCCCCCCCC(=O)*; γGlu = O=C(O)[C@H](CCC(=O)[*:2])N[*:1]; AEEA = NCCOCCOCC(=O)O; Aib = CC(C)(N)C(=O)O; βAla = NCCC(=O)O

Test: Phase 1 MD Cohorts 11 and 12: safety, tolerability, disposition
Type: in vivo, human
Experimental: The primary objective of this study is to determine the safety and tolerability of CT-388 in participants with and without type 2 diabetes mellitus (T2DM) when administered once weekly over 12 consecutive weeks for Cohorts 11 and 14 with titrated dosing (and additionally, up to 24 weeks for Cohorts 12 and 13).
The cohorts in the MD QW study are as follows. • Cohort 11: Once weekly dose administered SC in the abdomen across 12 consecutive weeks with CT-388 or matched placebo doses of 5.0 mg administered for the first 3 weeks and then titrated to 8.0 mg for the duration of the treatment period. If a participant(s) experiences moderate to severe tolerability issues after the third dose of 5 mg, the same 5 mg dose may be continued for up to an additional 2 weeks, i.e., up-titration to 8 mg may be attempted after the fourth or fifth 5 mg dose. If participant(s) still unable to tolerate 8 mg by Day 36, then that participant(s) may continue at 5 mg for the remaining duration of the treatment period. • Cohorts 12 and 13: Once weekly dose administered SC in the abdomen titrated across 12 consecutive weeks with CT-388 or matched placebo doses of: • 5.0 mg at Day 1 and Day 8 • 8.0 mg at Day 15 and Day 22 • 12.0 mg (or 8.0 mg based on tolerability) at Day 29 and Day 36 • 17.0 mg (or 12.0 mg based on tolerability) at Day 43 and Day 50 • 22.0 mg (or 12.0 mg or 17.0 mg based on tolerability) at Day 57. • If at 22 mg on Day 57, continue that dose for the duration of the treatment period. • If at 12 mg or 17 mg on Day 57, titration to the corresponding next higher dose level may be attempted on a weekly basis based on the individual's tolerability (e.g., if on Day 57, 12 mg dose was administered and tolerated, on Day 64, dose of 17 mg may be attempted). • If not able to tolerate, continue at the previously tolerated dose level until the following week (e.g., to Day 71), at which point another attempt can be made to the next higher dose level. • Attempts to the next higher dose level can continue to be made until Day 78. The dose level achieved at Day 78 should be maintained for an additional 12 weeks of weekly dosing in the extension period, resulting in a cumulative of 24 weeks of total doses for participants in Cohorts 12 and 13. At any time during the extension period, if the maintenance dose is not tolerated, then that dose may be either lowered by one corresponding dose level (e.g., if at 22 mg, decrease to 17 mg; if at 17 mg decrease to 12 mg), and/or the dosing may be withheld for up to 2 weeks. Following this temporary dose adjustment/withholding period, attempt to titrate back up to the previous (higher) dose level should be made. […]

[1] = Cohort 12, planned target 22 mg

CC[C@H](C)[C@H](NC(=O)[C@H](CC(C)C)NC(=O)[C@H](Cc1c[nH]c2ccccc12)NC(=O)[C@H](CCC(N)=O)NC(=O)[C@@H](NC(=O)[C@H](Cc1ccccc1)NC(=O)[C@H](C)NC(=O)[C@H](CCCCNC(=O)COCCOCCNC(=O)COCCOCCNC(=O)CC[C@H](NC(=O)CCCCCCCCCCCCCCCCCCC(=O)O)C(=O)O)NC(=O)[C@H](CCC(N)=O)NC(=O)[C@H](C)NC(=O)[C@@H](NC(=O)[C@H](CCCCN)NC(=O)[C@H](CC(=O)O)NC(=O)[C@H](CC(C)C)NC(=O)C(C)(C)NC(=O)[C@@H](NC(=O)[C@H](CO)NC(=O)[C@H](Cc1ccc(O)cc1)NC(=O)[C@H](CC(=O)O)NC(=O)[C@H](CO)NC(=O)[C@@H](NC(=O)[C@H](Cc1ccccc1)NC(=O)[C@@H](NC(=O)CNC(=O)[C@H](CCC(=O)O)NC(=O)CCNC(=O)C(C)(C)c1cc(F)cc(C#N)c1)[C@@H](C)O)[C@@H](C)O)[C@@H](C)CC)[C@@H](C)CC)C(C)C)C(=O)N[C@@H](C)C(=O)NCC(=O)NCC(=O)N1CCC[C@H]1C(=O)N[C@@H](CO)C(=O)N[C@@H](CO)C(=O)NCC(=O)N[C@@H](C)C(=O)N1CCC[C@H]1C(=O)N1CCC[C@H]1C(=O)N1CCC[C@H]1C(=O)N[C@@H](CO)C(N)=O [CT-388] ({Isobutyryl(2-(3-CN-5-F-Ph))-βAla}-EGTFTSDYSI[Aib]LDKIAQK([AEEA-AEEA-γGlu-C20 diacid])AFVQWLIAGGPSSGAPPPS-NH2)
SAEs or severe treatment related GI-related AEs (CT-388 participants, up to 24 weeks): No SAEs or severe treatment related GI-related AEs; also recorded: No SAEs or severe treatment related GI-related TEAE | patients dosed per planned path and completed treatment on 22 mg [1]: 75% | patients with dose down-titration who completed treatment on 12 mg [1]: 25% | safety and tolerability (up to 24 weeks of treatment, up to 22 mg SC QW): generally safe and well-tolerated
